# Columns and labels:
# KRAS^G12C tumors [1] = conditions: preclinical analyses, combination; cited from earlier work
# [2] = clinical trials, first dosing cohorts; cited from earlier work
# KRAS^G12C tumors [3] = conditions: immune-competent mice; alone as well as in combination with immune-checkpoint inhibitors; cited from earlier work
# [4] = solubility assessment during lead optimization; assay type: physicochemical
# Excerpt: Within the pharmaceutical research and development field, the investigation of a suitable solid-state form represents a crucial step. Investigating a solid-state form comprises several decisions, mainly the investigation of an anhydrous, salt or co-crystal form and the investigation of a polymorph of the respective anhydrous, salt or co-crystal. During a lead optimization program, several properties of research compounds are optimized, typically leading to one or a few candidates that continue into exploratory development programs. Typically, in the assessment and optimization of physical chemical parameters during lead optimization, the main focus is on solubility. […] Beyond the optimization of solubility, further physical chemical parameters, such as (1) melting point, (2) thermal behavior, (3) hygroscopicity, (4) crystal habit, (5) polymorphic behavior or physical stability, (6) impurity profile, and (7) chemical stability of the anhydrous or salt form, must be borne in mind when investigating the salt. The melting point of a drug, either as a free base, acid or salt form, should be higher than a certain threshold to allow processing steps such as drying or tableting. The assessment of thermal behavior, which is typically done by thermogravimetry (TGA) and differential scanning calorimetry (DSC), also includes solid-solid phase transitions. […]
compound,measurement,setting,value
C=CC(=O)N1CCN(c2nc(=O)n(-c3c(C)ccnc3C(C)C)c3nc(-c4c(O)cccc4F)c(F)cc23)[C@@H](C)C1 [AMG 510],effect on anti-tumor efficacy of chemotherapy and targeted agents,KRAS^G12C tumors [1],improved the anti-tumor efficacy of chemotherapy and targeted agents
same,anti-tumor activity,[2],demonstrated anti-tumor activity
same,cures,KRAS^G12C tumors [3],durable cures
"C=CC(=O)N1CCN(c2nc(=O)n(-c3c(C)ccnc3C(C)C)c3nc(-c4c(O)cccc4F)c(F)cc23)[C@@H](C)C1 [Compound 1, 6-fluoro-7-(2-fluoro-6-hydroxyphenyl)-1-(4-methyl-2-(2-propanyl)-3-pyridinyl)-4-((2S)-2-methyl-4-(2-propenoyl)-1-piperazinyl)pyrido[2,3-d]pyrimidin-2(1H)-one]",solubility,[4],good solubility features
